# Article PMC5079829 (Bioorganic & medicinal chemistry, 2016)
# Legend:
# [1] = test system: H9/HIV-1IIIB; settings: previously reported; cited from earlier work
# [2] = test system: panel of 51 Env-pseudotyped viruses; experiment: microbe, parasite or virus in culture; assay type: cell-based; settings: Human immunodeficiency virus 1, read-out: IC50 range over the pseudovirus panel
# [3] = test system: HIV-1 Env pseudovirus QB726.70M.ENV.C4; settings: QB726.70M.ENV.C4, subtype A, NIH # 11888; previously published ref 18; cited from earlier work
# [4] = test system: HIV-1 Env pseudovirus QF495.23M.ENV.A1; settings: QF495.23M.ENV.A1, subtype A, NIH # 11890; previously published ref 18; cited from earlier work
# [5] = test system: HIV-1 Env pseudovirus QF495.23M.ENV.B2; settings: QF495.23M.ENV.B2, subtype A, NIH # 11892; previously published ref 18; cited from earlier work
# [6] = test system: HIV-1 Env pseudovirus BG505-T332N; settings: subtype A, previously published ref 18; cited from earlier work
# [7] = test system: HIV-1 Env pseudovirus QG393.60M.ENV.A1; settings: QG393.60M.ENV.A1, subtype A2/D, NIH # 11905; previously published ref 18; cited from earlier work
# [8] = test system: HIV-1 Env pseudovirus QG393.60M.ENV.B7; settings: QG393.60M.ENV.B7, subtype A2/D, NIH # 11906; previously published ref 18; cited from earlier work
# [9] = test system: HIV-1 Env pseudovirus QG393.60M.ENV.B8; settings: QG393.60M.ENV.B8, subtype A2/D, NIH # 11907; previously published ref 18; cited from earlier work
# [10] = test system: HIV-1 Env pseudovirus CRF02_AG clone 266; settings: CRF02_AG clone 266, subtype A/G, NIH # 11602; previously published ref 18; cited from earlier work
# [11] = test system: HIV-1 Env pseudovirus CRF02_AG clone 278; settings: CRF02_AG clone 278, subtype A/G, NIH # 11605; previously published ref 18; cited from earlier work
# [12] = test system: HIV-1 Env pseudovirus p1058_11.B11.1550; settings: p1058_11.B11.1550, subtype B, NIH # 11563, R5X4-tropic; previously published ref 18; cited from earlier work
# [13] = test system: HIV-1 Env pseudovirus QH0692, clone 42; settings: QH0692, clone 42, subtype B, NIH # 11018; previously published ref 18; cited from earlier work
# [14] = test system: HIV-1 Env pseudovirus AC10.0, clone 29; settings: AC10.0, clone 29, subtype B, NIH # 11024; previously published ref 18; cited from earlier work
# [15] = test system: HIV-1 Env pseudovirus pTHRO4156 clone 18; settings: pTHRO4156 clone 18, subtype B, NIH # 11037; previously published ref 18; cited from earlier work
# [16] = test system: HIV-1 Env pseudovirus pCAAN5342 clone A2; settings: pCAAN5342 clone A2, subtype B, NIH # 11038; previously published ref 18; cited from earlier work
# [17] = test system: HIV-1 Env pseudovirus SC422661.8; settings: SC422661.8, subtype B, NIH # 11058; previously published ref 18; cited from earlier work
# [18] = test system: HIV-1 Env pseudovirus ZM214M.PL15; settings: ZM214M.PL15, subtype C, NIH # 11310; previously published ref 18; cited from earlier work
# [19] = test system: HIV-1 Env pseudovirus ZM135M.PL10a; settings: subtype C, NIH # 11315, previously published ref 18; cited from earlier work
# [20] = test system: HIV-1 Env pseudovirus CAP210.2.00.E8; settings: CAP210.2.00.E8, subtype C, NIH # 11317; previously published ref 18; cited from earlier work
# [21] = test system: HIV-1 Env pseudovirus QB099.391M.ENV.C8; settings: QB099.391M.ENV.C8, subtype C, NIH # 11909; previously published ref 18; cited from earlier work
# [22] = test system: HIV-1 Env pseudovirus QD435.100M.ENV.E1; settings: QD435.100M.ENV.E1, subtype D, NIH # 11918; previously published ref 18; cited from earlier work
# [23] = test system: HIV-1 Env pseudovirus BF535.W6M.ENV.A1; settings: BF535.W6M.ENV.A1, subtype D/A, NIH # 11517 (infant); previously published ref 18; cited from earlier work
smiles,measurement,setting,value
CC1(C)CC(NC(=O)C(=O)Nc2ccc(Cl)cc2)CC(C)(C)N1 [NBD-556],inhibition of cell-to-cell HIV-1 transmission,[1],failed to do so
Cc1nc([C@H](NC(=O)c2ccc(-c3ccc(Cl)cc3)[nH]2)[C@@H]2CCCCN2)sc1CO [NBD-11021A2],IC50,[2],320 to 4400 nM
same,IC50,[3],1300 ± 300 nM
same,IC50,[4],1300 ± 400 nM
same,IC50,[5],600 ± 400 nM
same,IC50,[6],1000 ± 100 nM
same,IC50,[7],410 ± 200 nM
same,IC50,[8],800 ± 300 nM
same,IC50,[9],480 ± 200 nM
same,IC50,[10],1000 ± 200 nM
same,IC50,[11],1300 ± 500 nM
same,IC50,[12],1100 ± 800 nM
same,IC50,[13],520 ± 100 nM
same,IC50,[14],320 ± 10 nM
same,IC50,[15],1000 ± 200 nM
same,IC50,[16],600 ± 70 nM
same,IC50,[17],330 ± 10 nM
same,IC50,[18],2700 ± 200 nM
same,IC50,[19],2700 ± 1200 nM
same,IC50,[20],2800 ± 700 nM
same,IC50,[21],1800 ± 500 nM
same,IC50,[22],3700 ± 100 nM
same,IC50,[23],2800 ± 600 nM
